Broadly, the IC50 is the concentration that gives 50% inhibition. The IC90 is the concentration needed for an effect of 90%.

≈ marks a conversion by molar mass, not a printed value.

From patent US11135202B2, “Thiazolide compounds for treating viral infections” (Romark Laboratories L.C., priority 2016, dated 2021) come the findings set out here.

One test relates to RSV-A2. Description: RSV-A2 yield in infected HeLa cells (virus-induced syncytia counted by immunofluorescence). Type of test: cell-based.
Test [1] relates to Sendai virus (SeV). Description: SeV virus yield in AGMK cells (HA titration, plaque assay; MTT viability; cytopathic effect). It counts as cell-based. A general note: Cytopathic effects are the visible damage that an infection or toxin causes in cultured cells.
Test [2] relates to Sendai virus (SeV). Type of test: cell-based.
In test [3] the test system is respiratory syncytial virus. As to the kind of experiment: Study RM08-3002 clinical trial, time to alleviation of symptoms, RSV patients. To be noted: human, in vivo.

In the case of `CC(=O)Oc1ccccc1C(=O)Nc1ncc([N+](=O)[O-])s1` [nitazoxanide], in the test on RSV-A2 (human respiratory syncytial virus, HeLa cells, MOI 1 TCID50/cell, syncytia at 48 hours p.i., non cytotoxic doses, read-out: IC50, antiviral activity against RSV-A2), the IC50 came out at 0.3 µg/mL (≈ 0.976 µM). In the test with RSV-A2 (human respiratory syncytial virus, HeLa cells, MOI 1 TCID50/cell, syncytia at 48 hours p.i., non cytotoxic doses, read-out: IC90, antiviral activity against RSV-A2), the IC90 is 0.8 µg/mL (≈ 2.6 µM). The “effect of treatment against RSV” value in the test with RSV-A2 (in vitro) is recorded as “effective against RSV”. In addition, the “protection of infected cells from virus-induced damage” value with Sendai virus (SeV) [1] (SeV 3 PFU/cell, 10 μg/ml, 24 h p.i.) is recorded as “cytoprotective”. In the test with Sendai virus (SeV) [1] (at concentrations non-toxic for the host cells), the “inhibition of SeV replication” value was “effective”. Moreover, the “inhibition of SeV in A549 cells” value in the test with Sendai virus (SeV) [2] is recorded as “also effective”. Also, the “reduction in duration of symptoms at the median vs placebo” value in test [3] was 76 h.
